Experimental data: article PMC2932657 (Chemistry & biology, 2010)

Target: PimD (Streptomyces natalensis, UniProt Q9EW92)
Assay: UV-visible difference spectrophotometric titration
Type: binding

## C[C@@H]1C/C=C/C=C/C=C/C=C/[C@H](O[C@@H]2O[C@H](C)[C@@H](O)[C@H](N)[C@@H]2O)C[C@@H]2O[C@](O)(C[C@@H](O)C/C=C/C=C/C(=O)O1)C[C@H](O)[C@H]2C(=O)O [4,5-desepoxypimaricin]
  Kd: 4 µM
